Tested on: SETDB1, CSV, ATF7IP, IMPα1 in H1299 cells
Experiment: IFA microscopy of SETDB1, CSV, ATF7IP, IMPα1 in H1299
Format: cell-based, human
Design: dose or concentration left out as unconfirmed
Protocol: FIG. 18. […] Protein targets were localized by ASI digital pathology. […] Protein targets were localized by ASI digital pathology.
IFA microscopy and cell culture methods were performed as described in detail, above.

Substance: Mithramycin A [MTH]
- expression of mesenchymal metastatic marker CSV: induced an increase
- nuclear expression of SETDB1: no effect

From patent US20260242753A1, “NOVEL INHIBITORS OF HISTONE […] NUCLEAR LOCALISATION” (The Council of the Queensland Institute of Medical Research, priority 2022, published 2026)
